# Columns and labels:
# DGKζ = target: T1, DGKζ (Homo sapiens, UniProt Q13574); test: DGKζ biochemical assay (ADP-Glo); details: read-out: DGK ζ IC50
# T1 construct: purchased Carna 12-110
# Experimental: (§1) Compounds of the present invention were prepared into 10 mM DMSO solution and 10 nL of stock was transferred into 384 plates (Optiplate 384 plate) using Echo550. DMSO was used as high control, and ATP substrate buffer was used as a low control. A 1× enzyme assay buffer was prepared (Hepes, pH 7.0 25 mM, BSA 0.05%, Triton-X100 0.002%, CaCl2) 1 μM, MgCl2 10 mM, DTT 2 mM). […] OAG (1-oleoyl-2-acetyl-sn-glycerol, 25 mg/ml, Avanti 8001000) and PS (10 mg/ml, Avanti 840032P) were mixed at the ratio of 1:2. A 1× substrate solution was prepared with 1× assay buffer by 100-fold dilution. The substrate solution was sonicated on ice for 1 min. The pure ATP was added to the substrate solution (DGKα:400 μM). 5 μL of the enzyme solution were added to the 384 well plate, and the plate was spun for 1 min at 1000 rpm and incubated for 30 mins at RT. 5 μL of 1× substrate solution were added to the 384 well plate, the plate was spun and then incubated for 45 mins at RT. 10 μL ADP-Glo […] was added to stop the assay. After 60 mins at RT, 20 μL ADP-Glo Detection buffer was added as the final step. Plate was read after 45 min incubation at RT.
# (§2) Data analysis was performed by calculating the […] using following the formula:
# (§3) [formula] • High control (Hc): DMSO/DGKα(DGKζ)/Substrate/ATP/ADP-Glo • Low Control (Lc): ATP/ADP-Glo
# DGKα = DGKα (Homo sapiens, UniProt P23743); test: DGKα biochemical assay (ADP-Glo); details: read-out: DGK α IC50
# DGKα, sequence (P23743 whole entry): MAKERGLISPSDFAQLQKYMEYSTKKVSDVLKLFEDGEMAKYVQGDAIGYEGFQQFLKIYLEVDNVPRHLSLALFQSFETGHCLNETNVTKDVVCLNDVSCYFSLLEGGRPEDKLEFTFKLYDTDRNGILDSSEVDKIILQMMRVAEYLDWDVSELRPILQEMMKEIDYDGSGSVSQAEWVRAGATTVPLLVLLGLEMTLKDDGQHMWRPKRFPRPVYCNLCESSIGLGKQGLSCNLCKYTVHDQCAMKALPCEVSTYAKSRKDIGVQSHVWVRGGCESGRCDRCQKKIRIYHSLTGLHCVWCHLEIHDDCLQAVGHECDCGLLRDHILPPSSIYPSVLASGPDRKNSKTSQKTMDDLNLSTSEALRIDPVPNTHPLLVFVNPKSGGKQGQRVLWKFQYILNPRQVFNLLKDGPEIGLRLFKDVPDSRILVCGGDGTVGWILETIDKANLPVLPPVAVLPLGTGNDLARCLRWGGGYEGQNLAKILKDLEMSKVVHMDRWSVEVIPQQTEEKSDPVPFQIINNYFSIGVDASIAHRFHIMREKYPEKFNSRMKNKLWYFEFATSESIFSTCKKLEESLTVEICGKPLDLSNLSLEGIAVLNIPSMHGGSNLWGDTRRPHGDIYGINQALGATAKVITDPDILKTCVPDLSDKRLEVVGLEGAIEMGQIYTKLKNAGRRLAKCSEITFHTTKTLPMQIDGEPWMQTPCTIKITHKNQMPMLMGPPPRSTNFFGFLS
# Experimental: as §1, §2, §3
# T1 sequence (Q13574 1-929 isoform Q13574-4): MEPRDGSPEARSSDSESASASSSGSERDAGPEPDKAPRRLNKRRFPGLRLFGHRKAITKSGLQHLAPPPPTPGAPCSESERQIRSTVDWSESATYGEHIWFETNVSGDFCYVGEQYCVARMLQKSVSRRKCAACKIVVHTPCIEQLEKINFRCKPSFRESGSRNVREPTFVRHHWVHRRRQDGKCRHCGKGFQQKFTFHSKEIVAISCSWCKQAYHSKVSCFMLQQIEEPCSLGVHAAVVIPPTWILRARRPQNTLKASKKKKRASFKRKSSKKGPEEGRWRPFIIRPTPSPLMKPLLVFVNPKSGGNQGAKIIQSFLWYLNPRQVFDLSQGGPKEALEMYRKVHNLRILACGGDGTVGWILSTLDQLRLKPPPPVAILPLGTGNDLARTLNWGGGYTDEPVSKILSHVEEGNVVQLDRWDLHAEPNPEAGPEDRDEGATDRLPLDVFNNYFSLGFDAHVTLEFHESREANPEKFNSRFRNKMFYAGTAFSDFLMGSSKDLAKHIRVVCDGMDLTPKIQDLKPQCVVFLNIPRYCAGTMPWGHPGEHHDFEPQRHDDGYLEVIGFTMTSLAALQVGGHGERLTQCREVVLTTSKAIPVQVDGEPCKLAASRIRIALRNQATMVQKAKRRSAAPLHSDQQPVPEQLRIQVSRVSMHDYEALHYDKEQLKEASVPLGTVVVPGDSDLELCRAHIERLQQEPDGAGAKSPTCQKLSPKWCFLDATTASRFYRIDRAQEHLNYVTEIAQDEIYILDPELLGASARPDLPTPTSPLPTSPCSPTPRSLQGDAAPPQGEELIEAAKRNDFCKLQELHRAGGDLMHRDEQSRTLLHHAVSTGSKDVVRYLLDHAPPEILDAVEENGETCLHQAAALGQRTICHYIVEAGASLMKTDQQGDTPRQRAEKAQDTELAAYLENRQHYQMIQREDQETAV
IC50 (DGKζ) [nM],IC50 (DGKα) [nM],Structure (SMILES)
≥ 1000,≥ 1000,"Cn1c(=O)cc(N(C)[C@H]2CC[C@H](N(CC3COC3)c3ccc(F)cc3O)CC2)c2nc(C#N)ccc21 [Example 3BB, trans-8-((4-((4-fluoro-2-hydroxyphenyl)(oxetan-3-ylmethyl)amino)cyclohexyl)(methyl)amino)-5-methyl-6-oxo-5,6-dihydro-1,5-naphthyridine-2-carbonitrile]"
≥ 1000,10 to 100,"Cn1c(=O)c(C#N)c(N(C)[C@H]2CC[C@H](N(c3ccccc3)C3CC3)CC2)c2nc(Cl)ccc21 [Example 3C, trans-6-Chloro-4-((4-(cyclopropyl(phenyl)amino)cyclohexyl)(methyl)amino)-1-methyl-2-oxo-1,2-dihydro-1,5-naphthyridine-3-carbonitrile]"
≥ 1000,100 to 1000,"Cn1c(=O)c(C#N)c(N(C)[C@H]2CC[C@@H](N(c3ccc(F)cc3F)C3CC3)CC2)c2nc(Cl)ccc21 [Example 3CC, cis-6-Chloro-4-[[4-(N-cyclopropyl-2,4-difluoro-anilino)cyclohexyl]-methyl-amino]-1-methyl-2-oxo-1,5-naphthyridine-3-carbonitrile]"
100 to 1000,10 to 100,"Cn1c(=O)c(C#N)c(N(C)[C@H]2CC[C@H](N(c3ccccc3O)C3CC3)CC2)c2nc(Cl)ccc21 [Example 3D, 6-Chloro-4-((trans-4-(cyclopropyl(2-hydroxyphenyl)amino)cyclohexyl)(methyl)amino)-1-methyl-2-oxo-1,2-dihydro-1,5-naphthyridine-3-carbonitrile]"
≥ 1000,10 to 100,"COc1ccc(N(C2CC2)[C@H]2CC[C@H](N(C)c3c(C#N)c(=O)n(C)c4ccc(Cl)nc34)CC2)cc1 [Example 3E, trans-6-chloro-4-((4-(cyclopropyl(4-methoxyphenyl)amino)cyclohexyl)(methyl)amino)-1-methyl-2-oxo-1,2-dihydro-1,5-naphthyridine-3-carbonitrile]"
100 to 1000,10 to 100,"Cn1c(=O)c(C#N)c(N(C)[C@H]2CC[C@H](N(c3ccc(F)cc3)C3CC3)CC2)c2nc(Cl)ccc21 [Example 3F, trans-6-chloro-4-((4-(cyclopropyl(4-fluorophenyl)amino)cyclohexyl) (methyl)amino)-1-methyl-2-oxo-1,2-dihydro-1,5-naphthyridine-3-carbonitrile]"
≥ 1000,10 to 100,"Cn1c(=O)c(C#N)c(N(C)[C@H]2CC[C@H](N(c3ccc(F)cc3O)C3CC3)CC2)c2nc(Cl)ccc21 [Example 3G, trans-6-chloro-4-((4-(cyclopropyl(4-fluoro-2-hydroxyphenyl)amino)cyclohexyl)(methyl)amino)-1-methyl-2-oxo-1,2-dihydro-1,5-naphthyridine-3-carbonitrile]"
10 to 100,100 to 1000,"COc1cc(F)ccc1N(C1CC1)[C@H]1CC[C@@H](N(C)c2c(C#N)c(=O)n(C)c3ccc(Cl)nc23)CC1 [Example 3H, cis-6-chloro-4-((4-(cyclopropyl(4-fluoro-2-methoxyphenyl)amino)cyclohexyl)(methyl)amino)-1-methyl-2-oxo-1,2-dihydro-1,5-naphthyridine-3-carbonitrile]"
100 to 1000,10 to 100,Cn1c(=O)c(C#N)c(N(C)[C@H]2CC[C@H](N(c3ccc(F)cn3)C3CC3)CC2)c2nc(Cl)ccc21 [Example 3I]
100 to 1000,10 to 100,"COc1ccc(N(C2CC2)[C@H]2CC[C@H](N(C)c3c(C#N)c(=O)n(C)c4ccc(Cl)nc34)CC2)nc1 [Example 3J, trans-6-chloro-4-((4-(cyclopropyl(5-methoxypyridin-2-yl)amino)cyclohexyl)(methyl)amino)-1-methyl-2-oxo-1,2-dihydro-1,5-naphthyridine-3-carbonitrile]"
100 to 1000,10 to 100,"Cn1c(=O)c(C#N)c(N(C)[C@H]2CC[C@H](N(CC3CC3)c3ccc(F)cn3)CC2)c2nc(Cl)ccc21 [Example 3L, trans-6-chloro-4-((4-((cyclopropylmethyl)(5-fluoropyridin-2-yl)amino)cyclohexyl)(methyl)amino)-1-methyl-2-oxo-1,2-dihydro-1,5-naphthyridine-3-carbonitrile]"

# From patent publication US20230271954A1 (Gossamer Bio Services, Inc., priority 2020, published 2023)
